This is an account of results in article PMC8570587 (Medicinal chemistry research : an international journal for …, 2021).

A short description of one assay: ORAC antioxidant assay. The note with it: read-out: ORAC antioxidant EC50; positive control. The class given is physicochemical.
Another assay has as its target T1, recombinant human MAO-B (Homo sapiens, UniProt P27338).
T1 sequence (P27338 1-520): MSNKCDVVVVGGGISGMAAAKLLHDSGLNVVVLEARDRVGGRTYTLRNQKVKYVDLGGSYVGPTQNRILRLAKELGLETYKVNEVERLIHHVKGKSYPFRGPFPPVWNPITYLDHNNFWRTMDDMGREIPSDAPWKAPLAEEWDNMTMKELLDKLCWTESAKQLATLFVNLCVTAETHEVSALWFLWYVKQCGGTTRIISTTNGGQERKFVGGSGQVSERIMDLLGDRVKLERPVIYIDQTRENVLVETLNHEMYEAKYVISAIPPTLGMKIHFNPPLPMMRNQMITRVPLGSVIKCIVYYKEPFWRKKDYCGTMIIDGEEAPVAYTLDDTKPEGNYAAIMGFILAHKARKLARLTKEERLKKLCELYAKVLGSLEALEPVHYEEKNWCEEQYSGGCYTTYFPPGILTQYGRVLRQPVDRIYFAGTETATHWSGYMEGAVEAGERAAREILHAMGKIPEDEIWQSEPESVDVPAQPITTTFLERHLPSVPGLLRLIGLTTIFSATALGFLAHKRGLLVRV
The assay is described as follows: MAO-B enzyme inhibition assay. The assay is classed as biochemical.

`O=C1O[C@H]([C@@H](O)CO)C(O)=C1O` [Vitamin C]: the EC50 in the assay “ORAC antioxidant assay” stood at 25.9 µM.
Regarding `NS(=O)(=O)Cc1noc2ccccc12` [Zonisamide], the IC50 on recombinant human MAO-B came out at 22.6 µM.
